Series [1] in a line: Food effect and bioavailability in rats. The format is in vivo, rat. From the text: Accordingly, the dosage forms, regimens and methods of administration described herein may be accomplished on humans in the fed or fasted state and with food or without. Thus, the methods described herein could include administration of a therapeutically effective amount of ASN001, as a substantially pure enantiomer, as a mixture or as a racemic mixture, which is “food indifferent” which means with or without food to a patient in a fed or fasted state. Examples include, without limitation, with food, to a patient who has consumed food in the last two hours, without food, and/or to a patient who has not eaten in the last two hours.

Series [2] relates to male SD rats. In words: Prostate and seminal vesicle weights after 14 days repeat oral administration. The format is in vivo. As for the experimental part: The effect of ASN001 and its individual enantiomers on prostate and seminal vesicle weights was evaluated after 14 days repeat oral administration in male SD rats. ASN001 caused a dose-dependent reduction of the prostate and seminal vesicle weights.
(In a prior test using ASN001 at 30 mg/kg once a day (QD) PO×14 days, not made in comparison to either enantiomer, but using the same general protocol, the reduction in prostate and seminal vesicle weights was “about 50%” and “about 60%” respectively. See Example 88 of WO 2013/049559.)
(§1) General procedures for the in vitro and in vivo studies discussed above have been described previously in WO 2013/049559 (published in the US as United States Patent Application Publication No. US 2013/0085148; see e.g. Examples 84-88). The inhibitory effect of compounds on human CYP17 lyase activity in vitro in human testicular microsomes (CelsisIVT, US) was determined in a similar manner to the CYP17 lyase assay in rat testicular microsomes described previously as Example 84 in WO 2013/049559 (published in the US as United States Patent Application Publication No. US 2013/0085148), except that human testicular microsomes were used instead of rat testicular microsomes.

In a further series the test system is testosterone synthesis. In words: Cell-based functional assay: testosterone synthesis inhibition in H295R cells. To be noted: for EC50: Homo sapiens, NCI-H295R, H295R cells; for IC50 / testosterone/cortisol synthesis inhibition ratio: human adrenal NCI-H295R cells. Further details: species or system human. The protocol:
Cell-Based Functional Assay: Testosterone Synthesis Inhibition
To understand how the inhibition of CYP17 lyase impacts testosterone synthesis, testosterone levels were measured in H295R adrenocortical carcinoma cells. This assay was conducted as described previously as Example 86 in WO 2013/049559 (published in the US as United States Patent Application Publication No. US 2013/0085148).

The subject of series [3] is male SD rats. Conditions: prior test, 30 mg/kg QD PO x 14 days; Example 88 of WO 2013/049559; cited from earlier work.
Series [4] has as its target T1, CYP17 C17,20-lyase (Homo sapiens, UniProt P05093).
T1 construct: These cells have intact testosterone synthesis pathway; host or cells: NCI-H295R human adrenocortical carcinoma cells
T1 sequence (P05093 1-508): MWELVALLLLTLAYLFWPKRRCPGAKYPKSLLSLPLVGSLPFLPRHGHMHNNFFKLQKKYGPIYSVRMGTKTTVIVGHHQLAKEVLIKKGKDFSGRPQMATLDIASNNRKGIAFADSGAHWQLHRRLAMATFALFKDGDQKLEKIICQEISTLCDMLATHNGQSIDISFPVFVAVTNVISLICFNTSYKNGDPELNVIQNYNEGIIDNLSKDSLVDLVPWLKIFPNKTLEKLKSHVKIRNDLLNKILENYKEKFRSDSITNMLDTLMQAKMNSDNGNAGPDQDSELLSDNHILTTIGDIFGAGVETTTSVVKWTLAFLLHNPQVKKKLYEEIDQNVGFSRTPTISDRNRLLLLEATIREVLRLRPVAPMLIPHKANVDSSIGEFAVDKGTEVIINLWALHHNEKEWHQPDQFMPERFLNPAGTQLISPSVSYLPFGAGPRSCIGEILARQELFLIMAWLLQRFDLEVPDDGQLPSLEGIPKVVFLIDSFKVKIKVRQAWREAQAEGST
In words: Cell-based CYP17 C17,20-lyase assay in H295R cells. The protocol: Cell-Based CYP17 C17,20-Lyase Assay
To test the inhibitory effect of compounds on CYP17 C17,20-lyase activity in cells, human adrenocortical carcinoma H295R cells (ATCC) were used. These cells have intact testosterone synthesis pathway and are ideal to study the effect of compounds on various enzymes involved in this pathway. The cell-based CYP17 C17,20-Lyase assay was conducted as described previously as Example 85 in WO 2013/049559 (published in the US as United States Patent Application Publication No. US 2013/0085148).

Another series has as its system cortisol synthesis. In words: Cell-based functional assay: cortisol synthesis inhibition in H295R cells. Further details: species or system human. As for the experimental part: Cell-Based Functional Assay: Cortisol Synthesis Inhibition
The H295R cell based assay was used to examine effects on cortisol synthesis. The DetectX® Cortisol Immunoassay kit (Arbor Assays, Cat. No. K003-H1) measures Cortisol present in extracted dried fecal samples, serum, plasma and tissue culture media samples.
(§2) Standard Preparation • 1. Label seven test tubes as #1 through #7. • 2. Pipet 450 μL of Assay Buffer into tube #1 and 250 μL into tubes #2 to #7. • 3. The Cortisol stock solution contains an organic solvent. Pre-rinse the pipet tip several times to ensure accurate delivery. • 4. Carefully add 50 μL of the Cortisol stock solution to tube #1 and vortex completely. • 5. Take 250 μL of the Cortisol solution in tube #1 and add it to tube #2 and vortex completely. • 6. Repeat the serial dilutions for tubes #3 through #7. • 7. The concentration of Cortisol in tubes 1 through 7 will be 5,000, 2,500, 1,250, 625, 312.5, 156.25 and 78.125 pg/mL.
(§3) Assay Protocol • 1. Subculture H295R (Human Adreno Cortical Carcinoma cell line ATCC# CRL-2128) cells and seed 60,000 cells per well in a poly-d lysine plate and leave it overnight at 37° C. • 2. Add 50 μl of serially diluted compounds from a 5×plate. • 3. Incubate overnight at 37° C. (˜16 hours). • 4. Collect media/cell culture supernatant and dilute appropriately for Cortisol estimation (1:10 diluted with assay buffer). • 5. Pipet 50 μL of samples or standards into wells in the plate. • 6. Pipet 75 μL of Assay Buffer into the non-specific binding (NSB) wells. • 7. Pipet 50 μL of Assay Buffer into wells to act as maximum binding wells (B0 or 0 pg/mL). • 8. Add 25 μL of the DetectX® Cortisol Conjugate to each well using a repeater pipet. • 9. Add 25 μL of the DetectX® Cortisol Antibody to each well, except the NSB wells, using a repeater pipet. • 10. Gently tap the sides of the plate to ensure adequate mixing of the reagents. Cover the plate with the plate sealer and shake at room temperature for 1 hour. If the plate is not shaken signals bound will be approximately 45% lower. • 11. Aspirate the plate and wash each well 4 times with 300 μL wash buffer. Tap the plate dry on clean absorbent towels. • 12. Add 100 μL of the TMB Substrate to each well, using a repeater pipet. • 13. Incubate the plate at room temperature for 30 minutes without shaking. • 14. Add 50 μL of the Stop Solution to each well, using a repeater or a multichannel pipet. • 15. Read the optical density generated from each well in a plate reader capable of reading at 450 nm. • 16. Use the plate reader's built-in 4PLC software capabilities to calculate Cortisol concentration for each sample.

Series [5] addresses T1, CYP17 C17,20-lyase. In words: CYP17 lyase assay in human testicular microsomes. The format is biochemical.
Description: ASN001 has one chiral center. The individual enantiomers of ASN001 are both potent and selective inhibitors of CYP17. […] Similar relative potency results for the racemate and enantiomers have also been obtained experimentally in rat testicular microsomes and human H295R adrenocortical carcinoma cells. In summary ASN001 and its individual enantiomers are all potent inhibitors of CYP17 activity and testosterone synthesis in biochemical and cellular functional assays.
as §1

The subject of another series is corticosterone synthesis. Briefly: Cell-based functional assay: corticosterone synthesis inhibition in H295R cells. Set-up: species or system human. As for the experimental part: Cell-Based Functional Assay: Corticosterone Synthesis Inhibition
The H295R cell based assay was used to examine effects on corticosterone synthesis. The DetectX® Corticosterone Immunoassay kit (Arbor Assays, Cat. No. K014-H1) measures Corticosterone present in extracted dried fecal samples, serum, plasma and tissue culture media samples.
as §2, with “corticosterone” for “Cortisol”
as §3, with “for Corticosterone” for “for Cortisol”, “(1:10 Diluted” for “(1:10 diluted”, “wells (Bo” for “wells (B0”, “DetectX® Corticosterone” for “DetectX® Cortisol”, “calculate Corticosterone” for “calculate Cortisol”

Where [6] appears, read: H295R cells, average of multiple runs, read-out: CYP17 C17,20-lyase average IC50.
Where [7] appears, read: human adrenal NCI-H295R cells, read-out: 17,20-Lyase IC50.
[8] abbreviates: Homo sapiens, NCI-H295R, H295R cells, read-out: cortisol synthesis inhibition IC50.
[9] abbreviates: human adrenal NCI-H295R cells, read-out: cortisol synthesis IC50.
Where [10] appears, read: Homo sapiens, NCI-H295R, H295R cells, read-out: corticosterone synthesis inhibition IC50.
Where [11] appears, read: human adrenal NCI-H295R cells, read-out: corticosterone synthesis IC50.

The source of these data is US20170319563A1, “STEROID-FREE DISEASE MANAGEMENT” (Asana BioSciences, LLC, priority 2014, published 2017).

Read-outs that look alike come from different tables or passages of the source.

As usually defined, the EC50 is the midpoint of the concentration-response curve. Usually IC50 stands for the point on the concentration scale where inhibition reaches its midpoint. For `CC(O)(c1ccncc1)c1cnc(-c2ccc(F)cc2)s1` (racemic) [ASN001, 1-(2-(4-fluorophenyl)thiazol-5-yl)-1-(pyridin-4-yl)ethanol], in series [1] (rat and other non-clinical species), the bioavailability result is “quite high”. Moreover, the food effect entry in series [1] (rats) is “does not exhibit a food effect”. Moreover, the “reduction in prostate weight” value in the series with male SD rats [2] (10 mg/kg BID PO x 14 days) was 24%; in the series with male SD rats [2] (30 mg/kg QD PO x 14 days) it was 29%; in the series with male SD rats [3], “about 50%”. Moreover, the “reduction in seminal vesicle weight” value was 48% in the series with male SD rats [2] (10 mg/kg BID PO x 14 days), 43% in the series on male SD rats [2] (30 mg/kg QD PO x 14 days) and “about 60%” in the series on male SD rats [3]. The molecule further yielded a 50% effective concentration (EC50) with testosterone synthesis of 54 nM. For the same molecule, the half-maximal inhibitory concentration (IC50) in the series on testosterone synthesis was 54 nM; on CYP17 C17,20-lyase [4] (setting [6]), 50 nM; at CYP17 C17,20-lyase [4] (setting [7]), 50 nM; with cortisol synthesis (setting [8]), 346 nM; with cortisol synthesis (setting [9]), 350 nM; against CYP17 C17,20-lyase [5] it was 15 nM. Moreover, the IC50 in the series with corticosterone synthesis (setting [10]) and in the series with corticosterone synthesis (setting [11]) was 2800 nM in each case. Further, the “testosterone/cortisol synthesis inhibition ratio” value with testosterone synthesis turned out to be 6.5. Moreover, on CYP17 C17,20-lyase [4] (adrenal NCI-H295R cells), the “difference between C17,20-lyase inhibition and cortisol biosynthesis inhibition” value was around 7 fold.
`CC(O)(c1ccncc1)c1cnc(-c2ccc(F)cc2)s1` (single isomer, unassigned; (+)) [(+)ASN001] displayed an IC50 on CYP17 C17,20-lyase [5] of 63 nM.
`CC(O)(c1ccncc1)c1cnc(-c2ccc(F)cc2)s1` (single isomer, unassigned; (-)) [(−)ASN001]: in the series with male SD rats [2] (10 mg/kg BID PO x 14 days), the “reduction in prostate weight” value was found to be 30% and the “reduction in seminal vesicle weight” value turned out to be 31%. Besides, in the series on male SD rats [2] (15 mg/kg QD PO x 14 days), the “reduction in prostate weight” value was 17% and the “reduction in seminal vesicle weight” value was 27%. The midpoint of inhibition at CYP17 C17,20-lyase [5], the IC50, lay at 8 nM.
`C[C@]12CC[C@H](O)CC1=CC[C@@H]1[C@@H]2CC[C@]2(C)C(c3cccnc3)=CC[C@@H]12` [Abiraterone, abiraterone, reference compound]: the EC50 in the series on testosterone synthesis amounted to 5 nM. Further, the half-maximal inhibitory concentration (IC50) with testosterone synthesis is 5 nM; on CYP17 C17,20-lyase [4] (setting [6]), 2.8 nM; on CYP17 C17,20-lyase [4] (setting [7]), 3 nM; in the series with cortisol synthesis (setting [8]), 0.68 nM; in the series on cortisol synthesis (setting [9]) it was below 1 nM; in the series on corticosterone synthesis (setting [10]) it was 65 nM. For the same molecule, the IC50 in the series on corticosterone synthesis (setting [11]) worked out at 65 nM. Also, the “testosterone/cortisol synthesis inhibition ratio” value in the series with testosterone synthesis is below 0.2.
